Activity calls are given as the source filed them.
How the values were obtained:
[1] = target: Cytochrome P450 2C9 (Homo sapiens, UniProt P11712)
[2] = target: T1, Corticotropin-releasing factor receptor 2/Corticotropin-releasing factor-binding protein (Homo sapiens, UniProt P24387+Q13324); test: Dose Response confirmation of uHTS hits for small molecule antagonists of the CRF-binding protein and CRF-R2 receptor complex.; format: functional; conditions: read-out: IC50_Mean
T1 sequence (Q13324 whole entry): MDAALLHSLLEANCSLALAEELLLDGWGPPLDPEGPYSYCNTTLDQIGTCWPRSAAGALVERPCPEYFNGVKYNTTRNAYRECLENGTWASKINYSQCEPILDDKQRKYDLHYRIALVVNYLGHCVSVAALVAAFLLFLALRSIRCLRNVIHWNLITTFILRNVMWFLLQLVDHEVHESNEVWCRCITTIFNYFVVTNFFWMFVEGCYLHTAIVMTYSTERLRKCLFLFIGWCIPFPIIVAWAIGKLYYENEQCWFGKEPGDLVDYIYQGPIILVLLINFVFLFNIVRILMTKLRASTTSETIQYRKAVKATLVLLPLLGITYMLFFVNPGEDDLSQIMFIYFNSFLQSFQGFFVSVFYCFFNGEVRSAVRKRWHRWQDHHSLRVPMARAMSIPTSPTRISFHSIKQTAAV
T1 sequence (P24387 whole entry): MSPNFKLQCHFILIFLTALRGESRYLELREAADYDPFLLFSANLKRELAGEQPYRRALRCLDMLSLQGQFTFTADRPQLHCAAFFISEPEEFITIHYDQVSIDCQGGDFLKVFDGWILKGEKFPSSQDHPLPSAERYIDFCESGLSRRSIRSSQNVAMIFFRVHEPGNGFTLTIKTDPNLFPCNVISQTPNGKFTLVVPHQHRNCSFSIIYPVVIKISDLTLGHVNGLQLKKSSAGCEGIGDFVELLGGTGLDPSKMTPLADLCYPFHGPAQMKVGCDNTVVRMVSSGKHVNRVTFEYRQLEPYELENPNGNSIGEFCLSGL

[3] = target: T1, Corticotropin-releasing factor receptor 2/Corticotropin-releasing factor-binding protein; test: activators of CRF receptor 2 with binding protein – uHTS hits, confirmation (AID 602473); format: functional; conditions: read-out: EC50_Mean
[4] = target: Cytochrome P450 2C19 (Homo sapiens, UniProt P33261); test: Cytochrome panel assay with activity outcomes. Panel member name: p450-cyp2c19 Compounds with AC50 equal or less than 10 uM are considered active; format: functional
Chain of Cytochrome P450 2C19 (P33261 whole entry): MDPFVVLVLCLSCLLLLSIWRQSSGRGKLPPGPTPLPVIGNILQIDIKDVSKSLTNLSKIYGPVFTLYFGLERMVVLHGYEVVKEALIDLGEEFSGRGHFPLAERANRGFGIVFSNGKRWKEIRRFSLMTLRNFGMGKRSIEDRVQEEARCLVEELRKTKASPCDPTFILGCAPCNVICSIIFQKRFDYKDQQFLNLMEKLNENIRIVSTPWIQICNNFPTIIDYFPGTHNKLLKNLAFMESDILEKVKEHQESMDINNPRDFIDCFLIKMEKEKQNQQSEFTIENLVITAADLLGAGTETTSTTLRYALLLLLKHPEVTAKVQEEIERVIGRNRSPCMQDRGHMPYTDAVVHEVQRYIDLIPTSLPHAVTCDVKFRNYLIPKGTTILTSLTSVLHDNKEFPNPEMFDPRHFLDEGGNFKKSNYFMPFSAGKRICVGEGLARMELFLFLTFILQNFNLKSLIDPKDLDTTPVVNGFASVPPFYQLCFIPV

[5] = target: T2, Heat shock factor protein 1 (Mus musculus, UniProt P38532); test: inhibition of MG132-induced HSE-luciferase signal, confirmation, cell-based, NIH3T3, luminescence, dose retest (AID 2382); format: functional;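 note: NIH3T3 fibroblasts with HSF1-driven luciferase reporter stressed by proteasome inhibitor MG132; luminescence from HSF1-driven luciferase expression after 8 hours of MG132 stress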
T2 sequence (P38532 whole entry): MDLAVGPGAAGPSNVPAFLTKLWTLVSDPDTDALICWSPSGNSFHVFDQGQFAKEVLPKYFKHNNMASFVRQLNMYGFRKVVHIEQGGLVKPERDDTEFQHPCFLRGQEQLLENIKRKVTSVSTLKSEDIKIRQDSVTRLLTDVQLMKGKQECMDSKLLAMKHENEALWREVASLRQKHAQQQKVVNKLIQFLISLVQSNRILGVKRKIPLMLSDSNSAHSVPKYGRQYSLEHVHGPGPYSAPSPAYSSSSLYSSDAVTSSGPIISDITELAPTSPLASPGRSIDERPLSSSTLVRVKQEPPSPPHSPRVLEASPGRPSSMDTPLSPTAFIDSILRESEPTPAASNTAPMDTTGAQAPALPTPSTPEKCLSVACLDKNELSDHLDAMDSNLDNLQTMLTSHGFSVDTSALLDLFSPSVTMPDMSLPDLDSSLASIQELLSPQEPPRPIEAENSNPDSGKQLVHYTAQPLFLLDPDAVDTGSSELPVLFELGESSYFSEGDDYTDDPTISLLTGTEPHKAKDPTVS

[6] = target: Cytochrome P450 2D6 (Homo sapiens, UniProt P10635);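 note: CYP2D6 member of a cytochrome P450 panel assay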
Chain of Cytochrome P450 2D6 (P10635 whole entry): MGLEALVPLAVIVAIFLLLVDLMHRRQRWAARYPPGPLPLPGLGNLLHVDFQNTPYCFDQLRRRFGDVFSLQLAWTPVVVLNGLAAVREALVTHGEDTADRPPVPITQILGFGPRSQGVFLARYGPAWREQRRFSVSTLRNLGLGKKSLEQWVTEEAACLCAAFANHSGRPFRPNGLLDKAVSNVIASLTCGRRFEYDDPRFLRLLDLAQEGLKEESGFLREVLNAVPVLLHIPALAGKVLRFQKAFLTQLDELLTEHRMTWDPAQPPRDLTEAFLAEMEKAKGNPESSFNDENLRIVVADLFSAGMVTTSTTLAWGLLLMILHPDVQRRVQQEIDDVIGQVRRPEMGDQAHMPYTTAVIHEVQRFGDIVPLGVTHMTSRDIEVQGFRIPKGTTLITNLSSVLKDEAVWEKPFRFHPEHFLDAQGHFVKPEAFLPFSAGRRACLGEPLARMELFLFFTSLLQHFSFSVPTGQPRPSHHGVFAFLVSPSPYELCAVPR

[7] = target: T3, Cytochrome P450 1A2 (Homo sapiens, UniProt P05177);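 note: PubChem cytochrome P450 panel assay, CYP1A2 panel member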
T3 sequence (P05177 whole entry): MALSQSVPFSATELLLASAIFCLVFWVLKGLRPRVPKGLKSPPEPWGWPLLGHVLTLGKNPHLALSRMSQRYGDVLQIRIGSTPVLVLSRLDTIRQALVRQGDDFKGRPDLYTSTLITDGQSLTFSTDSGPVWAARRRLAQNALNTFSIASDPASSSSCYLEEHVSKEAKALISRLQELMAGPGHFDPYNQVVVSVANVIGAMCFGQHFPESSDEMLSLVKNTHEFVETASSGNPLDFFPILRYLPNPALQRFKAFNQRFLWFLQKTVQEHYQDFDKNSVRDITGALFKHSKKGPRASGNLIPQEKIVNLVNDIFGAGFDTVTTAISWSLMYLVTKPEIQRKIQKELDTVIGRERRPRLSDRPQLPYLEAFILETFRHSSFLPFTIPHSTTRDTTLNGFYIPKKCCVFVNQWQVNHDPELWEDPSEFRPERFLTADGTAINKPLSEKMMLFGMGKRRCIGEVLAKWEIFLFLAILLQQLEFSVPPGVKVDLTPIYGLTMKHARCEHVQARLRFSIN

[8] = target: T4, Rac GTPase-activating protein 1 (Homo sapiens, UniProt Q9H0H5); test: MgcRacGAP GTPase-activating activity inhibitors, confirmation, biochemical, ADP Hunter fluorescence, primary and confirmatory (AID 624330); format: functional
T4 sequence (Q9H0H5 whole entry): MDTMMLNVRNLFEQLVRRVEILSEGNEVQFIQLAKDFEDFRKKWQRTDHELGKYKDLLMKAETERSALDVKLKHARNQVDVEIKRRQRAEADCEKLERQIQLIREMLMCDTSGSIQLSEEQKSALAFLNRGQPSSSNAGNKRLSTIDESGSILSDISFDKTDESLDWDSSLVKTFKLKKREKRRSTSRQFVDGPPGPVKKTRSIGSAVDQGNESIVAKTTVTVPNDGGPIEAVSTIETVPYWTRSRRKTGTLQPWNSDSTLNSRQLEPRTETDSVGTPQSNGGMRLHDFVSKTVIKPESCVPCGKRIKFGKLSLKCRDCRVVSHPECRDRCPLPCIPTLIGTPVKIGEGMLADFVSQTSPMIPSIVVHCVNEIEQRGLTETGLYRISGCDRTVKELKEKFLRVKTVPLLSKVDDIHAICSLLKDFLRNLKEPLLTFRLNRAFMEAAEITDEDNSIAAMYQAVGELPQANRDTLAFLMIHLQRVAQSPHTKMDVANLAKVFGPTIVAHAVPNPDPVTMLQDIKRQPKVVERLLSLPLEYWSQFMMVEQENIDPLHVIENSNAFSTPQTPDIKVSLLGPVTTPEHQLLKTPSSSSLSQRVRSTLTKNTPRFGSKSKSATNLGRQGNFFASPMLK

Chain of Cytochrome P450 2C9 (P11712 whole entry): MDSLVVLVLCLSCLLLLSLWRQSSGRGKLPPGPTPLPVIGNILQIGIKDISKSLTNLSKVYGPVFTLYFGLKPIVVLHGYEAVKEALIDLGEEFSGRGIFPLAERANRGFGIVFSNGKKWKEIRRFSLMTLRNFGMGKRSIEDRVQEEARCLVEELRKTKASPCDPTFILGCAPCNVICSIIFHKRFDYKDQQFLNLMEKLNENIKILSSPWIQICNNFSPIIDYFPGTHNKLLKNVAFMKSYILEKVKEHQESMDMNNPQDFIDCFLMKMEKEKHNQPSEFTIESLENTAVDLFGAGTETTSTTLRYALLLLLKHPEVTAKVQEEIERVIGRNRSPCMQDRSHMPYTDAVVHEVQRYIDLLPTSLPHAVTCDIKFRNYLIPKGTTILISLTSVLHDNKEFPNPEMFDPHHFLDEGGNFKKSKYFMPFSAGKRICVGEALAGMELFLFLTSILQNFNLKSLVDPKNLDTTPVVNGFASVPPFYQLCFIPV

Clc1cccc(Oc2cnc3ccccc3n2)c1
AC50 [1]: 14.1 µM (inconclusive)

CCn1cc(C2=NOC(C(=O)Nc3ccccc3C(=O)OC)C2)c(C)n1 (configuration not stated)
IC50 [2]: > 47.1 µM (inactive) | EC50 [3]: > 53 µM (inactive)

CCCS(=O)(=O)N1CCCC(C(=O)NCCCN2CCN(c3ccccc3F)CC2)C1 (configuration not stated)
AC50 ([4]; read-out: AC50): 39.8 µM (inconclusive) | AC50 [1]: 5.01 µM (inconclusive)

Cn1c(=O)c(C(=O)NCc2ccccc2Cl)c(O)c2ccccc21
IC50 [2]: > 47.1 µM (inactive) | EC50 [3]: > 53 µM (inactive)

CC(C)CCNC(=O)CN(C(=O)CCC(=O)Nc1nccs1)c1ccc2c(c1)OCCO2
EC50 [5]: 5.9 µM (active)

CN1CCN(c2nc(-c3ccc(C(C)(C)C)cc3)nc3ccccc23)CC1
EC50 [5]: 0.328 µM (active)

N=C1[C@@H](O)[C@]2(I)c3ccccc3N3C(=N)[C@H](O)[C@@H]4c5ccccc5N1[C@@H]4[C@@H]32
AC50 [6]: 6.31 µM (inconclusive) | AC50 [1]: 7.94 µM (inconclusive)

CC(=O)Nc1nn(C)c2nc(C)cc(C)c12
EC50 [5]: > 195 µM (not active)

COc1cc(=O)n2c(n1)SCCC2
AC50 [1]: 31.6 µM (inconclusive)

COc1ccc(NC(C)=O)cc1NC(=O)CN1CCN(CC(=O)Nc2ccccc2Cl)CC1
EC50 [5]: > 195 µM (not active) | AC50 [1]: 20 µM (inconclusive)

CC1CC(=O)Nc2cc([N+](=O)[O-])ccc2N1 (configuration not stated)
EC50 [5]: > 195 µM (not active)

CCN=C(S)NNC(=O)c1cccc(Br)c1
AC50 ([4]; read-out: AC50): 5.62 µM (inconclusive) | AC50 [7]: 17.8 µM (inconclusive)

COc1ccc(C(C)N2CC34C=CC(O3)C(C(=O)O)C4C2=O)cc1 (configuration not stated)
EC50 [5]: > 195 µM (not active)

Cc1ccc2[nH]c(Cc3ccc(N)cc3)nc2c1
AC50 [1]: 14.1 µM (inconclusive)

NS(=O)(=O)c1ccc(NC(=O)CSc2nnc(COc3ccccc3Cl)n2C2CC2)cc1
IC50 [2]: > 47.1 µM (inactive) | EC50 [3]: > 53 µM (inactive)

Cc1cnc(C(=O)Nc2ccccc2-n2cccc2)cn1
EC50 [5]: > 195 µM (not active)

Oc1c2c(nc3c(-c4ccccc4)cnn13)CCC2
AC50 ([4]; read-out: AC50): 31.6 µM (inconclusive) | AC50 [1]: 22.4 µM (inconclusive)

O=C1C2C3C=CC(C3)C2C(=O)N1CCCO (configuration not stated)
IC50 [2]: > 47.1 µM (inactive) | EC50 [3]: > 53 µM (inactive)

N#C/C(=C/c1cccc(C(F)(F)F)c1)c1nc(CCN2C(=O)c3ccccc3C2=O)cs1
EC50 [5]: > 195 µM (not active)

CCOC(=O)C1CCN(C(=O)c2n[nH]c(=O)c3ccccc23)CC1
IC50 [2]: > 47.1 µM (inactive) | EC50 [3]: > 53 µM (inactive)

CN1CCN(c2ncc3nc(-c4ccc(Cl)cc4)c(=O)n(CCC#N)c3n2)CC1
AC50 [4]: inconclusive | AC50 [7]: 15.8 µM (inconclusive)

COc1ccc2cc(OCC(=O)NNC(=O)Nc3ccc(F)cc3)ccc2c1
IC50 [8]: 65 µM (active)

Fc1cccc(NC(S)=NCc2ccc(Cl)cc2)c1
IC50 [2]: > 47.1 µM (inactive) | EC50 [3]: > 53 µM (inactive)

NS(=O)(=O)c1ccc(CN=C(S)NC2CCCCC2)cc1
EC50 [5]: > 195 µM (not active)

CCN1CCN(CC(c2ccccc2)c2ccccc2)CC1
IC50 [8]: 197 µM (active)

C=CCn1c(SCC(C)=O)nnc1-c1cc(-c2ccccc2)sc1N
IC50 [8]: 29.1 µM (active)

CCn1c(SCC(=O)NC(=O)NCc2ccco2)nnc1-c1cccs1
AC50 [1]: 39.8 µM (inconclusive)

COc1ccccc1CNc1ccnc(-c2c(C)noc2C)n1
AC50 [6]: 20 µM (inconclusive) | AC50 [1]: 0.501 µM (inconclusive)

Nc1ccc(O)c([N+](=O)[O-])c1
IC50 [8]: 42.8 µM (active)

CCCN1Cc2cccc(C(=O)N3CCN(c4ccc(OC)cc4)CC3)c2C1=O
EC50 [5]: > 195 µM (not active)

Cc1ccc(/N=N\c2c(O)ccc3cc(S(=O)(=O)O)ccc23)cc1
AC50 [7]: 5.01 µM (inconclusive) | AC50 [1]: 3.16 µM (inconclusive)

c1ccc(-n2c(-c3ccncc3)nnc2-c2ccco2)cc1
IC50 [2]: > 47.1 µM (inactive) | EC50 [3]: > 53 µM (inactive)

Cc1ncn(C23CC4CC(CC(C4)C2)C3)n1
IC50 [2]: > 47.1 µM (inactive) | EC50 [3]: > 53 µM (inactive)

Cc1cccc(CN2CCN(Cc3ccco3)CC2)c1
IC50 [8]: 87.2 µM (active)

Cc1ccc(S(=O)(=O)N2CCN(CCNC(=O)C(=O)NCc3ccccc3)CC2)cc1
EC50 [5]: > 195 µM (not active)

c1ccc(-c2nc3ccccc3c3nncn23)cc1
EC50 [5]: > 195 µM (not active)

COc1ccc(-c2csc(NC(=O)CN3C(=O)C4CC=CCC4C3=O)n2)cc1OC (configuration not stated)
IC50 [2]: > 47.1 µM (inactive) | EC50 [3]: > 53 µM (inactive)

COC(=O)CC1SC(=O)NC1=Nc1ccc(OC)cc1 (configuration not stated)
IC50 [2]: > 47.1 µM (inactive) | EC50 [3]: > 53 µM (inactive)

Nc1ccn([C@@H]2O[C@H](CNCC3=CCOc4ccc(O)cc43)[C@@H](O)[C@H]2O)c(=O)n1
IC50 [8]: 92.4 µM (active)

Cc1onc(-c2ccccc2Cl)c1C(=O)NCc1ccc(N2CCCC2=O)cc1
IC50 [2]: > 47.1 µM (inactive) | EC50 [3]: > 53 µM (inactive)

CCOc1cc(/C=N/NC(=O)c2ccccc2-n2cccc2)ccc1O
IC50 [8]: 46.2 µM (active)

COc1ccc(/C=N/NC(=O)c2cccc(S(=O)(=O)N3CCCC3)c2)cc1O
IC50 [8]: 57.5 µM (active)

O=[N+]([O-])c1ccc(Nc2nc(N/N=C\c3ccc4c(c3)OCO4)nc(N3CCCCC3)n2)cc1
AC50 [7]: 8.91 µM (inconclusive) | AC50 [1]: 8.91 µM (inconclusive)

O=C1/C(=N\O)Cc2ccccc21
AC50 ([4]; read-out: AC50): 39.8 µM (inconclusive) | AC50 [7]: 14.1 µM (inconclusive)

COc1ccc(/C=N/NC(=O)c2ccc(CSc3nc(C)cc(C)n3)cc2)cc1O
IC50 [8]: 114 µM (active)

O=C(N/N=C/c1ccc(O)cc1)c1csc2c1CCCC2
IC50 [8]: 51.6 µM (active)
